Patent US20210346359A1, “Use of CFTR Modulators For Treating Cerebrovascular Conditions” (Qanatpharma AG, priority 2018, published 2021)
“Also recorded” adds a separate entry of the source.

Tests used:
[1] = system: mice with subarachnoid hemorrhage; assay: MRI (FAIR) cerebral blood flow in subarachnoid hemorrhage mice; type: in vivo, mouse; conditions: SAH mice, 3 mg/kg daily for 2 days
Excerpt: As described previously (10-12), we utilized a flow-sensitive alternating inversion recovery (FAIR) magnetic resonance imaging (MRI) technique (13) to evaluate cerebral blood flow (CBF). During imaging, mice were immobilized with 1.8% isoflurane delivered through a nose cone. To maintain body temperature, the MRI is equipped with embedded tubes that convect water from an external heater-pump. Respiration was monitored using a pneumatic pillow (SA Instruments, Stonybrook, USA); isoflurane levels were adjusted to maintain respiration at approximately 50 breaths/minute.
FAIR images were obtained using a 7 Tesla micro-MRI system (BioSpec 70/30 USR, Bruker BioSpin, Ettlingen, Germany), including the B-GA12 gradient insert, 72 mm inner diameter linear volume resonator for RF transmission, and anteriorly placed head coil for RF reception. […] FAIR images were evaluated by manual prescription (MIPAV, NIH, Bethesda, MD; http://mipav.cit.nih.gov) of sub-hemispheric regions-of-interest (ROIs), termed ‘global’, and local ROIs corresponding to cortical and sub-cortical parenchyma in forebrain sections; cortical and paraventricular parenchyma in middle sections; and cortical and midbrain parenchyma in hindbrain sections. […]

[2] = system: mice with subarachnoid hemorrhage; assay: Cleaved caspase-3 and Fluoro-Jade staining of cortical cells in subarachnoid hemorrhage mice; type: in vivo, mouse; conditions: 2 days post-SAH, 3 mg/kg daily for 2 days
Excerpt: The development of delayed vasoconstriction and brain injury is more rapid in the experimental mouse SAH model (2-5 days post-SAH) (12,19-21), compared to what is observed clinically (4-12 days post-SAH) (22,23). […] At 2 days post-SAH induction, animals were anesthetized with isoflurane; their brains were perfused with phosphate buffered saline (PBS) and then perfusion fixed with phosphate-buffered paraformaldehyde (4%; pH 7.4), both via the ascending aorta. Brains were immediately dissected and cut into coronal sections 1 mm posterior to the bregma. These brain sections were post-fixed in 4% paraformaldehyde (pH 7.4) for 48 hours at 4° C. and then incubated in 10% sucrose (3 hours), followed by 30% sucrose overnight (at 4° C.) for cyroprotection. The brain sections were then embedded in OCT (Sakura Finetek USA; Torrance, USA) on isopentane and dry ice. Cryostat sections (5 μm thick coronal slices) were collected on “Tissue Path Superfrost Plus Gold” slides (Fisher Scientific; Whitby, Canada) and stored at −80° C. until used.
All samples were pre-treated with 10-minute proteinase (20 μg/ml; Promega; Madison, USA), followed by a standard 60-minute blocking procedure with either 10% normal donkey serum (Jackson immunoResearch Laboratories; West Grove, USA) in PBS or 10% goat serum (Invitrogen Life Technologies; Burlington, Canada) in PBS containing 1% bovine serum albumin. Brain slices were incubated with monoclonal rabbit anti-human active cleaved caspase-3 ([…] C92-605; 1:1000 dilution; BD Biosciences Canada; Mississauga Canada) and conjugated with Alexa Fluor 488 goat anti-rabbit IgG (Invitrogen). Both antibodies were diluted in Can Get Signal® immunoreaction enhancer solution and used an incubation time of 1 hour at room temperature. Specimens were washed and mounted with CC MountÔ.
Brain slices were serially incubated with 1% NaOH/80% ethanol (5 minutes), 70% ethanol (2 minutes), distilled water (2 minutes) and 0.06% potassium permanganate (10 minutes). After washing with deionized water, brain slices were stained with 0.0004% Fluoro-jade B (Histo-Chem Inc, Jefferson, USA) in 0.1% acetic acid (15 minutes). […]
Digital immunofluorescence images were acquired using a Zeiss LSM 710 confocal laser-scanning microscope in conjunction with Zeiss ZEN 2010 software (vessel images). […] Two independent assessors counted caspase-3 and Fluoro-Jade positive cells under blinded conditions, as previously described (12). For each animal, counts were obtained from the cortical region of a single coronal brain slice 1 mm posterior to the bregma (200× magnification), which includes the left and right temporal and parietal lobes The number of positive cells counted by each assessor was averaged, yielding a mean positive cell count/animal that was then used for statistical analyses.

O=C(Nc1ncc(C(c2ccccc2Cl)N2CCC(O)C2)s1)C1(c2ccc3c(c2)OCO3)CC1 (stereo not drawn) [C18, 1-(benzo[d][1,3]dioxol-5-yl)-N-(5-((2-chlorophenyl)(3-hydroxypyrrolidin-1-yl)methyl)thiazol-2-yl)cyclopropanecarboxamide]
cerebral blood flow / cerebral perfusion [1]: restores; also recorded: significantly improves | SAH-induced increase in Fluoro-Jade positive cortical cells [2]: dramatically attenuate; also recorded: abolish | SAH-induced increase in cleaved caspase-3 positive cortical cells [2]: dramatically attenuate; also recorded: abolish

Cc1ccc(NC(=O)C2(c3ccc4c(c3)OC(F)(F)O4)CC2)nc1-c1cccc(C(=O)O)c1 [lumacaftor]
cerebral blood flow / cerebral perfusion [1]: normalizes; also recorded: significantly improves | SAH-induced increase in Fluoro-Jade positive cortical cells [2]: dramatically attenuate; also recorded: abolish | SAH-induced increase in cleaved caspase-3 positive cortical cells [2]: dramatically attenuate; also recorded: abolish
